According to US20020137929A1, “1 - (3-heterocyclylphenyl) isothiourea, -isourea, -guanidine and -amidine herbicidal agents” (Intellectual Property Department, BASF Aktiengesellschaft, priority 1998, published 2002):

Experiments:
[1] = test system: CHEAL (Lambsquarters, Common); assay: Postemergence herbicidal evaluation; type: in vivo, Chenopodium album; settings: postemergence
How it was run: (§1)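 Visual 0–9 rating versus control (stand, vigor, malformation, size, chlorosis, overall appearance), taken four to five weeks post-spray. Two-week-old seedlings received roughly 0.0156–0.500 kg/ha active in acetone/water (50/50) with 0.5% TWEEN 20 via nozzle at 40 psi.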

[2] = test system: CHEAL (Lambsquarters, Common); assay: Preemergence herbicidal evaluation; type: in vivo, Chenopodium album; settings: preemergence, rated 4-5 weeks after treatment, 0-9 scale
How it was run: (§2)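 Scores use a 0–9 visual scale covering stand, vigor, malformation, size and chlorosis relative to controls, rated four to five weeks after treatment. Before emergence, soil-planted seeds were sprayed with compound in aqueous acetone at roughly 0.0156–0.500 kg/ha and held in the greenhouse.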

[3] = test system: CYPIR (Rice Flatsedge); assay: Postemergence weed control under flooded paddy conditions; type: in vivo, Cyperus iria; settings: postemergence weeds, rated 3 to 4 weeks after treatment
How it was run: (§3)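 Herbicidal effect is judged by eye on a 0–9 scale versus control, 3–4 weeks after dosing. Dosing is into flood water kept 1.5–3 cm over the soil, at about 0.0313–0.500 kg/ha in aqueous/acetone 50/50 v/v, on 3–5 cm weeds and 1.5–2.5-leaf rice seedlings.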

[4] = test system: TRZAWR (Wheat, Winter, cv Riband); assay: Preemergence herbicidal evaluation; type: in vivo, Triticum aestivum; settings: preemergence, rated 4-5 weeks after treatment, 0-9 scale
How it was run: as §2

[5] = test system: ABUTH (Velvetleaf); assay: Preemergence herbicidal evaluation; type: in vivo, Abutilon theophrasti; settings: preemergence, rated 4-5 weeks after treatment, 0-9 scale
How it was run: as §2

[6] = test system: ECHCG (Barnyardgrass); assay: Postemergence herbicidal evaluation; type: in vivo, Echinochloa crus-galli; settings: postemergence
How it was run: as §1

[7] = test system: ZEAMX (Corn, Field); assay: Postemergence herbicidal evaluation; type: in vivo, Zea mays; settings: postemergence
How it was run: as §1

[8] = test system: GLXMAW (Soybean, Williams); assay: Preemergence herbicidal evaluation; type: in vivo, Glycine max, (L.) Merr. cv Williams; settings: preemergence, rated 4-5 weeks after treatment, 0-9 scale
How it was run: as §2

[9] = test system: ZEAMX (Corn, Field); assay: Preemergence herbicidal evaluation; type: in vivo, Zea mays; settings: preemergence, rated 4-5 weeks after treatment, 0-9 scale
How it was run: as §2

[10] = test system: ECHCG (Barnyardgrass); assay: Preemergence herbicidal evaluation; type: in vivo, Echinochloa crus-galli; settings: preemergence, rated 4-5 weeks after treatment, 0-9 scale
How it was run: as §2

[11] = test system: CYPSE (Flatsedge); assay: Postemergence weed control under flooded paddy conditions; type: in vivo, Cyperus serotinus; settings: postemergence weeds, rated 3 to 4 weeks after treatment
How it was run: as §3

[12] = test system: ABUTH (Velvetleaf); assay: Postemergence herbicidal evaluation; type: in vivo, Abutilon theophrasti; settings: postemergence
How it was run: as §1

[13] = test system: IPOHE (Morningglory, Ivyleaf); assay: Preemergence herbicidal evaluation; type: in vivo, Ipomoea hederacea; settings: preemergence, rated 4-5 weeks after treatment, 0-9 scale
How it was run: as §2

[14] = test system: ORYSAT (Rice, Tebonnet); assay: Postemergence herbicidal evaluation; type: in vivo, Oryza sativa, (L.) Tebonnet; settings: postemergence
How it was run: as §1

[15] = test system: CASOB (Sicklepod); assay: Preemergence herbicidal evaluation; type: in vivo, Cassia obtusifolia; settings: preemergence, rated 4-5 weeks after treatment, 0-9 scale
How it was run: as §2

[16] = test system: IPOHE (Morningglory, Ivyleaf); assay: Postemergence herbicidal evaluation; type: in vivo, Ipomoea hederacea; settings: postemergence
How it was run: as §1

[17] = test system: SETVI (Foxtail, Green); assay: Postemergence herbicidal evaluation; type: in vivo, Setaria viridis; settings: postemergence
How it was run: as §1

COC(=O)CC1SC(=Nc2cc(-n3c(=O)cc(C(F)(F)F)n(C)c3=O)c(F)cc2Cl)N(C)C1=O (stereo not drawn) [Compound 88, Methyl 2-{{2-chloro-5-[3,6-dihydro-3-methyl-2,6-dioxo-4-(trifluoromethyl)-1(2H)-pyrimidinyl]-4-fluorophenyl}imino}-3-methyl-4-oxo-5-thiazolidineacetate] was tested, and the CHEAL herbicidal rating ([1]; rate 0.0158 kg/ha) was 9.0, the CHEAL herbicidal rating ([1]; rate 0.0315 kg/ha) was 9.0 and the CHEAL herbicidal rating ([1]; rate 0.0630 kg/ha) was 9.0. The CHEAL rating ([2]; 0.0156 kg/ha) was 7.0, the CHEAL rating ([2]; 0.0313 kg/ha) was 9.0 and the CHEAL rating ([2]; 0.0625 kg/ha) was 9.0. The CHEAL rating ([2]; 0.1250 kg/ha) was 9.0, the CHEAL rating ([2]; 0.2500 kg/ha) was 9.0 and the “Herbicidal rating CYPIR” value ([3]; Rate 0.0313 kg/ha) was 0.0. The “Herbicidal rating CYPIR” value ([3]; Rate 0.0625 kg/ha) was 0.0, the “Herbicidal rating CYPIR” value ([3]; Rate 0.1250 kg/ha) was 0.0 and the “Herbicidal rating CYPIR” value ([3]; Rate 0.2500 kg/ha) was 0.0. It also gave a TRZAWR rating ([4]; 0.0156 kg/ha) of 0.0, a TRZAWR rating ([4]; 0.0313 kg/ha) of 0.0 and a TRZAWR rating ([4]; 0.0625 kg/ha) of 0.0. The TRZAWR rating ([4]; 0.1250 kg/ha) was 3.0, the TRZAWR rating ([4]; 0.2500 kg/ha) was 9.0 and the ABUTH rating ([5]; 0.0156 kg/ha) was 9.0. For the same molecule, the ABUTH rating ([5]; 0.0313 kg/ha) was 9.0, the ABUTH rating ([5]; 0.0625 kg/ha) was 9.0 and the ABUTH rating ([5]; 0.1250 kg/ha) was 9.0. For the same molecule, the ABUTH rating ([5]; 0.2500 kg/ha) was 9.0, the ECHCG herbicidal rating ([6]; rate 0.0158 kg/ha) was 1.0 and the ECHCG herbicidal rating ([6]; rate 0.0315 kg/ha) was 7.0. For the same molecule, the ECHCG herbicidal rating ([6]; rate 0.0630 kg/ha) was 7.0, the ZEAMX herbicidal rating ([7]; rate 0.0158 kg/ha) was 7.5 and the ZEAMX herbicidal rating ([7]; rate 0.0315 kg/ha) was 8.5. The ZEAMX herbicidal rating ([7]; rate 0.0630 kg/ha) was 9.0, the GLXMAW rating ([8]; 0.0156 kg/ha) was 0.0 and the GLXMAW rating ([8]; 0.0313 kg/ha) was 0.0. It also gave a GLXMAW rating ([8]; 0.0625 kg/ha) of 0.0, a GLXMAW rating ([8]; 0.1250 kg/ha) of 4.0 and a GLXMAW rating ([8]; 0.2500 kg/ha) of 9.0. The ZEAMX rating ([9]; 0.0156 kg/ha) was 0.0, the ZEAMX rating ([9]; 0.0313 kg/ha) was 0.0 and the ZEAMX rating ([9]; 0.0625 kg/ha) was 0.0. For the same molecule, the ZEAMX rating ([9]; 0.1250 kg/ha) was 6.0, the ZEAMX rating ([9]; 0.2500 kg/ha) was 8.0 and the ECHCG rating ([10]; 0.0156 kg/ha) was 0.0. The ECHCG rating ([10]; 0.0313 kg/ha) was 0.0, the ECHCG rating ([10]; 0.0625 kg/ha) was 0.0 and the ECHCG rating ([10]; 0.1250 kg/ha) was 0.0. For the same molecule, the ECHCG rating ([10]; 0.2500 kg/ha) was 2.0, the “Herbicidal rating CYPSE” value ([11]; Rate 0.0313 kg/ha) was 3.0 and the “Herbicidal rating CYPSE” value ([11]; Rate 0.0625 kg/ha) was 5.0. The “Herbicidal rating CYPSE” value ([11]; Rate 0.1250 kg/ha) was 7.0, the “Herbicidal rating CYPSE” value ([11]; Rate 0.2500 kg/ha) was 7.0 and the ABUTH herbicidal rating ([12]; rate 0.0158 kg/ha) was 9.0. The ABUTH herbicidal rating ([12]; rate 0.0315 kg/ha) was 9.0, the ABUTH herbicidal rating ([12]; rate 0.0630 kg/ha) was 9.0 and the IPOHE rating ([13]; 0.0156 kg/ha) was 0.0. The IPOHE rating ([13]; 0.0313 kg/ha) was 0.0, the IPOHE rating ([13]; 0.0625 kg/ha) was 0.0 and the IPOHE rating ([13]; 0.1250 kg/ha) was 9.0. For the same molecule, the IPOHE rating ([13]; 0.2500 kg/ha) was 9.0, the ORYSAT herbicidal rating ([14]; rate 0.0158 kg/ha) was 2.0 and the ORYSAT herbicidal rating ([14]; rate 0.0315 kg/ha) was 5.5. For the same molecule, the ORYSAT herbicidal rating ([14]; rate 0.0630 kg/ha) was 6.0, the CASOB rating ([15]; 0.0156 kg/ha) was 0.0 and the CASOB rating ([15]; 0.0313 kg/ha) was 0.0. For the same molecule, the CASOB rating ([15]; 0.0625 kg/ha) was 0.0, the CASOB rating ([15]; 0.1250 kg/ha) was 3.0 and the CASOB rating ([15]; 0.2500 kg/ha) was 9.0. The IPOHE herbicidal rating ([16]; rate 0.0158 kg/ha) was 9.0, the IPOHE herbicidal rating ([16]; rate 0.0315 kg/ha) was 9.0 and the IPOHE herbicidal rating ([16]; rate 0.0630 kg/ha) was 9.0. The SETVI herbicidal rating ([17]; rate 0.0158 kg/ha) was 9.0, the SETVI herbicidal rating ([17]; rate 0.0315 kg/ha) was 9.0 and the SETVI herbicidal rating ([17]; rate 0.0630 kg/ha) was 9.0.
